How the values were obtained:
[1] = system: VIOTR; test: Herbicidal action pre-emergence (PE); type: in vivo, Viola tricolor; conditions: dosage 320 g/ha
[2] = system: AMARE; test: Herbicidal action pre-emergence (PE); type: in vivo, Amaranthus retroflexus; conditions: dosage 320 g/ha
[3] = system: ALOMY; test: Herbicidal action pre-emergence (PE); type: in vivo, Alopecurus myosuroides; conditions: dosage 320 g/ha
[4] = system: ABUTH; test: Herbicidal action post-emergence (PO); type: in vivo, Abutilon theophrasti; conditions: dosage 320 g/ha
[5] = system: AMARE; test: Herbicidal action post-emergence (PO); type: in vivo, Amaranthus retroflexus; conditions: dosage 320 g/ha
[6] = system: VIOTR; test: Herbicidal action post-emergence (PO); type: in vivo, Viola tricolor; conditions: dosage 320 g/ha
[7] = system: SETVI; test: Herbicidal action pre-emergence (PE); type: in vivo, Setaria viridis; conditions: dosage 320 g/ha
[8] = system: Pyrenophora teres; test: In vivo preventive test on Pyrenophora teres (net blotch on barley); conditions: 100 ppm of active ingredient; barley plants; evaluated 14 days after the inoculation
Description: (§1) 5) Example: In Vivo Preventive Test on Pyrenophora teres (Net Blotch on Barley) [table] The active ingredients were made soluble and homogenized in a mixture of Dimethyl sulfoxide/Acetone//Tween® 80 and then diluted in water to the desired concentration. The young plants of barley were treated by spraying the active ingredient prepared as described above. Control plants were treated only with an aqueous solution of Acetone/Dimethyl sulfoxide/Tween® 80. After 24 hours, the plants were contaminated by spraying the leaves with an aqueous suspension of Pyrenophora teres spores.

[9] = system: POLCO; test: Herbicidal action pre-emergence (PE); type: in vivo, Polygonum convolvulus; conditions: dosage 320 g/ha
[10] = system: ECHCG; test: Herbicidal action pre-emergence (PE); type: in vivo, Echinochloa crus-galli; conditions: dosage 320 g/ha
[11] = system: MATIN; test: Herbicidal action pre-emergence (PE); type: in vivo, Matricaria inodora; conditions: dosage 320 g/ha
[12] = system: SETVI; test: Herbicidal action post-emergence (PO); type: in vivo, Setaria viridis; conditions: dosage 320 g/ha
[13] = system: PHBPU; test: Herbicidal action post-emergence (PO); type: in vivo, Pharbitis purpurea; conditions: dosage 320 g/ha
[14] = system: Puccinia recondita; test: In vivo preventive test on Puccinia recondita (brown rust on wheat); conditions: 100 ppm of active ingredient; wheat plants; evaluated 11 days after the inoculation
Description: as §1, with “4)” for “5)”, “Puccinia recondita (Brown Rust” for “Pyrenophora teres (Net Blotch”, “Wheat)” for “Barley)”, “wheat” for “barley”, “Puccinia recondita” for “Pyrenophora teres”

SMILES: O=C(Nc1nsc2c(=O)n(CC3CCCCC3)cnc12)c1cc(Cl)cc(Cl)c1 [Example I-20]
- VIOTR [1]: 100
- AMARE [2]: 100
- ALOMY [3]: 80

SMILES: O=C(Nc1nsc2c(=O)n(CC3CCCCC3)cnc12)c1cccnc1 [Example I-06]
- VIOTR [1]: 100
- AMARE [2]: 100
- ALOMY [3]: 90
- ABUTH [4]: 100
- AMARE [5]: 100
- VIOTR [6]: 100

SMILES: O=C(Nc1nsc2c(=O)n(CC3CCCCC3)cnc12)C(F)F [Example I-44]
- VIOTR [1]: 100
- AMARE [2]: 100
- SETVI [7]: 100
- ABUTH [4]: 100
- efficacy [8]: at least 70%
- POLCO [9]: 100
- AMARE [5]: 100
- VIOTR [6]: 100
- ECHCG [10]: 100
- MATIN [11]: 100

SMILES: O=C(Nc1nsc2c(=O)n(CC3CCCCC3)cnc12)c1ccc(Cl)cc1 [Example I-18]
- VIOTR [1]: 100
- AMARE [2]: 100
- ALOMY [3]: 80

SMILES: CC(=O)Nc1nsc2c(=O)n(Cc3ccc(F)cc3F)cnc12 [Example I-79]
- VIOTR [1]: 100
- AMARE [2]: 100
- ALOMY [3]: 100
- ABUTH [4]: 90
- AMARE [5]: 100
- VIOTR [6]: 100

SMILES: COC(=O)C(=O)Nc1nsc2c(=O)n(CC3CCCCC3)cnc12 [Example I-70]
- VIOTR [1]: 100
- SETVI [12]: 100
- AMARE [2]: 100
- ALOMY [3]: 100
- ABUTH [4]: 80
- PHBPU [13]: 100
- AMARE [5]: 100
- VIOTR [6]: 100

SMILES: O=C(Nc1nsc2c(=O)n(CC3CCCCC3)cnc12)C1CC1 [Example I-07]
- efficacy [14]: at least 70%
- VIOTR [1]: 100
- SETVI [12]: 100
- AMARE [2]: 100
- ALOMY [3]: 100
- ABUTH [4]: 80
- PHBPU [13]: 100
- AMARE [5]: 100
- VIOTR [6]: 100

SMILES: COC(=O)CC(=O)Nc1nsc2c(=O)n(CC3CCCCC3)cnc12 [Example I-71]
- VIOTR [1]: 100
- SETVI [12]: 100
- AMARE [2]: 100
- SETVI [7]: 100
- ABUTH [4]: 100
- PHBPU [13]: 100
- POLCO [9]: 100
- AMARE [5]: 100
- VIOTR [6]: 100
- ECHCG [10]: 100
- MATIN [11]: 100

SMILES: O=C(Nc1nsc2c(=O)n(Cc3ccc(F)cc3F)cnc12)C(F)(F)F [Example I-85]
- VIOTR [1]: 100
- SETVI [12]: 100
- AMARE [2]: 100
- SETVI [7]: 100
- ABUTH [4]: 80
- PHBPU [13]: 100
- POLCO [9]: 100
- AMARE [5]: 100
- VIOTR [6]: 100
- ECHCG [10]: 100
- MATIN [11]: 100

SMILES: Nc1nsc2c(=O)n(CC3=CCCCC3)cnc12 [Example I-29]
- VIOTR [1]: 100
- SETVI [12]: 100
- AMARE [2]: 100
- SETVI [7]: 100
- ABUTH [4]: 80
- PHBPU [13]: 80
- POLCO [9]: 100
- AMARE [5]: 100
- VIOTR [6]: 100
- ECHCG [10]: 100
- MATIN [11]: 100

— US20200123175A1, “NOVEL ISOTHIAZOLO-BASED BICYCLES, PROCESSES FOR THEIR PREPARATION AND THEIR USE AS HERBICIDES AND/OR PLANT GROWTH REGULATORS” (Bayer CropScience Aktiengesellschaft, priority 2017, published 2020)
